Series [1] concerns Yellowfever mosquitos (aedes aegypti). Description: Yellowfever mosquito water treatment test, 4th instar. It is filed as in vivo. The settings on record: 50 ppm; after 6 days. The protocol: Yellowfever mosquitos (aedes aegypti)
The test compound (1 Vol % in acetone) was applied to water in glass dishes containing 4th instar aedes aegypti. The test dishes were maintained at about 25° C. and observed daily for mortality. Each test weas replicated in 3 test dishes.

Series [2] has as its system Meloidogyne incognita J2 larvae. Description: Root-knot nematode solution assay. Conditions: 100 ppm; read after 72 hours; immobility regarded as mortality. It is filed as in vivo. The method, then: Test Procedures for Root-Knot Nematode Solution Assay (Meloidogyne incognita):
To microtiter plates containing about 1.0 mg of compound, 80:20 acetone was added to each well and the solution was mixed to obtain the desired compound concentration. The aqueous nematode suspension containing 20 to 50 Meloidogyne incognita J2 larvae per […] was added to each plate. The plates were then sealed and they were placed in an incubator at 27° C. and about 50% relative humidity. After 72 hours, the population mortality was read, whereby immobility of nematodes was regarded as mortality.

`Clc1ccc2c(c1)Oc1ccc(Cl)cc1C(N1CCNCC1)=N2` [I-B.23]: in series [1], the “mortality compared to untreated controls” value is “over 90%”. For `FC(F)(F)c1ccc2c(c1)C(N1CCN(c3ccccc3)CC1)=Nc1ccccc1S2` [I-A.51], the “mortality compared to untreated controls” value in series [2] turned out to be 100%.

The values above are taken from US20060069083A1, “Pesticidal dibenzo(hetero)azepine derivatives” (priority 2002, published 2006).
